Read-outs that look alike come from different tables or passages of the source.
Key:
α1B-AR = biological target: T1, α1B-AR (Mesocricetus auratus, UniProt P18841); assay: [3H]Prazosin competition/saturation binding on COS-1 membranes expressing α1B-AR; set-up: species or system rodent
T1 construct: expressed in transfected cells; host or cells: COS-1
T1 sequence (P18841 1-515): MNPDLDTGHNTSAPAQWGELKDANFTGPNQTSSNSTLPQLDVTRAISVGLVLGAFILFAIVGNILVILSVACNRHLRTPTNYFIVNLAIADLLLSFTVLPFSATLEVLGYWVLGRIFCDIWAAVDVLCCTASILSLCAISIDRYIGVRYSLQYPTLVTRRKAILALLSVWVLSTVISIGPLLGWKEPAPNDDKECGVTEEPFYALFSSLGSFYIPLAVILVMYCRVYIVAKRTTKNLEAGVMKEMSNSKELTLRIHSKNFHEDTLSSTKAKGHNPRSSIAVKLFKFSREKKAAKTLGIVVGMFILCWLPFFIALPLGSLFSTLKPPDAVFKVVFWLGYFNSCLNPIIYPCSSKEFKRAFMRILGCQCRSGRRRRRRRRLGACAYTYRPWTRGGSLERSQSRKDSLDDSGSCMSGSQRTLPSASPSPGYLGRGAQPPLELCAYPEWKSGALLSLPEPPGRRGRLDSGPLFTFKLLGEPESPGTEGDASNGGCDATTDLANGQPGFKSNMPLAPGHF
Description: (§1) COS-1 cells (American Type Culture Collection, Manassas, VA) were cultured in Dulbecco's modified Eagle's medium (DMEM) supplemented with 10% (v/v) heat inactivated fetal bovine serum (FBS), 100 µg ml^−1 penicillin and 100 µg ml^−1 streptomycin. Cells were maintained and passaged upon reaching confluence by standard cell culture techniques. pMT4 plasmids containing rodent α1-AR (a kind gift from Prof R Graham, Victor Chang Cardiac Research Institute, Australia) were used to transfect cells. Transient expression in COS-1 cells was accomplished using two techniques; the diethylaminoethane-dextran (DEAE-dextran) and Lipofectamine 2000 (Invitrogen, Carlsbad, CA, USA) methods. Briefly, the DEAE-dextran method involved washing of cells with phosphate buffered saline (PBS), followed by the addition of the DNA mixture (12–25 µg/4×10^6 cells) in DEAE-dextran (10 mg ml^−1) to cells at 60–80% confluency. Following a 3 h incubation, a PBS wash with 10% DMSO was used to shock the cells. Cells were harvested 72 h post transfection. For the Lipofectamine 2000 method, cells were incubated for 12 h with Opti-MEM (GIBCO BRL, Gaithersburg, MD, USA) containing Lipofectamine 2000.
(§2) Membranes were prepared as described previously. Briefly, COS-1 cells were transiently transfected using the DEAE-dextran method. […] Protein concentration was determined using Bradford reagent (Sigma, St Louis, MO, USA).
(§3) For all binding experiments, the reaction mixture was incubated for 1 h at room temperature, stopped by the addition of 4°C PBS and filtered with a Brandel cell harvester (Gaithersburg, MD, USA) on GF/C filters. Nonspecific binding was defined as binding in the presence of 100 µM phentolamine hydrochloride.
(§4) Nonlinear regression analysis of saturation and competition binding assay data was performed using the […] curve fitting program GraphPad Prism (San Diego, CA, USA). […] The competitive binding data for each ligand was tested for both one and two -site binding.

α1A-AR [1] = biological target: T2, α1A-AR (Rattus norvegicus, UniProt P43140); assay: [3H]Prazosin competition/saturation binding on COS-1 membranes expressing α1A-AR; set-up: species or system rodent; conditions: for Ki: [3H]Prazosin 200 pM, COS-1 membranes
T2 construct: expressed in transfected cells; host or cells: COS-1
T2 sequence (P43140 1-466): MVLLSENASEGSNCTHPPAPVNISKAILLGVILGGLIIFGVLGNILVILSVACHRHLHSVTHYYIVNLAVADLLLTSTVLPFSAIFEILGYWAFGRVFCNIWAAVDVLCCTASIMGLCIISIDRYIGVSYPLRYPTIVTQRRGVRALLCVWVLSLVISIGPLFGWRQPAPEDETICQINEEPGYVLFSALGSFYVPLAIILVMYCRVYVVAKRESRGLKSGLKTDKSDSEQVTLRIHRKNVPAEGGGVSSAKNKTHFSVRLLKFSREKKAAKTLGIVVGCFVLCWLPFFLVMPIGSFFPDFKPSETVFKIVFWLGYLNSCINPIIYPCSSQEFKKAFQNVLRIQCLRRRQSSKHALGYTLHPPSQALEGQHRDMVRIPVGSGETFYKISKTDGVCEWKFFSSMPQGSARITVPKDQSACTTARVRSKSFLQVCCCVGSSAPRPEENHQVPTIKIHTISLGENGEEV
Description: as §1, §2, §3, §4

α1D-AR [2] = biological target: T3, α1D-AR (Rattus norvegicus, UniProt P23944); assay: [3H]Prazosin competition/saturation binding on COS-1 membranes expressing α1D-AR; set-up: species or system rodent; conditions: [3H]Prazosin 200 pM
T3 construct: expressed in transfected cells; host or cells: COS-1
T3 sequence (P23944 1-561): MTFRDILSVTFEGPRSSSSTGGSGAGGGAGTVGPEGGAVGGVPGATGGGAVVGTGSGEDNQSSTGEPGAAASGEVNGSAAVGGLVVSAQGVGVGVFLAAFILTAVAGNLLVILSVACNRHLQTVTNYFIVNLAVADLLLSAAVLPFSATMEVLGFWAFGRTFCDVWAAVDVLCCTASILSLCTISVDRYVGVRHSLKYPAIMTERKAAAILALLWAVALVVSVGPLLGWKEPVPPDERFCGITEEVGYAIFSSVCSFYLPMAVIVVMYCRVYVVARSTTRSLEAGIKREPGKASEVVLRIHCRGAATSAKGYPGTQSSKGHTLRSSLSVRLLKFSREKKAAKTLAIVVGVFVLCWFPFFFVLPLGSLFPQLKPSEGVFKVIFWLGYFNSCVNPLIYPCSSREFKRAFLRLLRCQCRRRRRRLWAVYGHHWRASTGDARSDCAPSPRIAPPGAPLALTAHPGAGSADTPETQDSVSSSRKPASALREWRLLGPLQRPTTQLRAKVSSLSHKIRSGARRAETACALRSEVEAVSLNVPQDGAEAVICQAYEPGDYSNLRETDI
Description: as §1, §2, §3, §4

α1A-AR [3] = biological target: T2, α1A-AR; assay: Phosphatidylinositol hydrolysis (IP accumulation) assay in COS-1 cells expressing α1A-AR; type: cell-based, rodent; conditions: for IC50: 20 min compound, then 10 µM (-)-norepinephrine 30 min, COS-1 cells, read-out: pIC50, inhibition of norepinephrine induced IP accumulation at α1A-AR (converted)
Description: as §1
Accumulation of [^3H] inositol phosphates (IPs) was determined as described previously. Briefly, COS-1 cells were transiently transfected with α1A, α1B and α1D - AR pMT4 plasmids using the Lipofectamine method. 24 h after transfection, cells were seeded into 96 well plates and labelled overnight with 20 µCi ml^−1 [^3H]myo-inositol in inositol free DMEM supplemented with 5% charcoal stripped FBS. Cells were washed twice with inositol free DMEM, and incubated in inositol free DMEM for 2 h at 37°C. Cells were treated for 20 minutes with LiCl (20 mM) and propanolol (20 µM) in the presence or absence of tested compounds. Agonists were then added for 30 min, and the reaction was terminated by addition of 0.4 M formic acid. Cells were lysed by freeze thawing twice and were applied to AG 1-X8 columns. Total IPs were eluted with 1 M ammonium formate in 0.1 M formic acid. 200 µL of eluted sample was diluted with 1 mL reverse osmosis water and 5 mL Ultimaflow scintillation fluid (Perkin Elmer), and were counted in a liquid scintillation counter.
Compounds were administered alone (100 µM) or prior to the addition of 10 µM […], to screen for agonist or antagonist activity respectively.
Figure 2 Inhibition of norepinephrine induced inositol phosphate (IP) accumulation at α1A- AR. α1A-AR transfected cells labelled overnight with [^3H]- myo-inositol were treated with indicated concentrations (300 µM – 0.1 µM) of test compounds, 1 (▪), 2 (▵), and 11 (○), for 20 min. This was followed by a 30 min. stimulation with 10 µM (-)- norepinephrine, following which total IP accumulation was determined. Data was normalized against basal COS-1 cell IP production and expressed as a percentage of the (-)-norepinephrine-stimulated maximal IP response of that receptor subtype. The data represented the mean ± SE of a single experiment (n = 4–5), performed in triplicate.
Figure 3 Inositol phosphate (IP) accumulation in the presence of norepinephrine and compound 8 at the α1A- adrenoceptor (AR). α1A-AR transfected cells were labelled with [^3H]- myo-inositol. Following a 20 min. treatment with lithium chloride (20 mM) and propanolol (20 µM) the cells were stimulated with the indicated concentrations (300 µM − 0.1 µM) of (-) norepinephrine (•) or compound 8 (▪) for 30 min. Total inositol phosphate (IP) accumulation was determined as described under “Materials and Methods”. Data was normalized against basal COS-1 cell IP production and expressed as a percentage of the (-)-norepinephrine-stimulated maximal IP response. The data represents the mean ± SE of three separate experiments (n = 3), performed in duplicate or triplicate.

α1D-AR [4] = biological target: T3, α1D-AR; assay: Phosphatidylinositol hydrolysis (IP accumulation) assay in COS-1 cells expressing α1D-AR; type: cell-based, rodent; conditions: 100 µM compound alone, agonist screen, n = 3
Description: as §1, with “For the Lipofectamine 2000 method, cells were incubated for 12 h with Opti-MEM (GIBCO BRL, Gaithersburg, MD, USA) containing Lipofectamine 2000.” left out
Accumulation of [^3H] inositol phosphates (IPs) was determined as described previously. […] 200 µL of eluted sample was diluted with 1 mL reverse osmosis water and 5 mL Ultimaflow scintillation fluid (Perkin Elmer), and were counted in a liquid scintillation counter. […]

all α1-AR subtypes = biological target: all α1-AR subtypes; set-up: method as in PMID 9249248; conditions: cited from earlier work
[5] = [3H]Prazosin 200 pM, COS-1 membranes, antilog of mean pKi, Cheng-Prusoff, read-out: Ki α1B-AR
[6] = antilog of mean pKi, Cheng-Prusoff, read-out: Ki α1A-AR
[7] = antilog of mean pKi, Cheng-Prusoff, read-out: Ki α1D-AR
[8] = pKi = -Log Ki, read-out: pKi α1D-AR (converted)
[9] = [3H]Prazosin 200 pM, COS-1 membranes, pKi = -Log Ki, read-out: pKi α1B-AR (converted)
[10] = pKi = -Log Ki, read-out: pKi α1A-AR (converted)

Structure (SMILES)	Ki (α1B-AR) [µM]	Ki (α1B-AR; [5]) [µM]	Ki (α1A-AR [1]; Ki α1A-AR, antilog of mean pKi, Cheng-Prusoff) [µM]	Ki (α1A-AR [1]; [6]) [µM]	Ki (α1D-AR [2]; Ki α1D-AR, antilog of mean pKi, Cheng-Prusoff) [µM]	Ki (α1D-AR [2]; [7]) [µM]	Ki (α1D-AR [2]; [8]) [µM]	IC50 (α1A-AR [3]) [µM]	selectivity for α1A-AR over α1B-AR (α1A-AR [1]; from binding affinities) [fold]	selectivity for α1A-AR over α1D-AR (α1A-AR [1]; from binding affinities) [fold]	Ki (α1B-AR; [9]) [µM]	Ki (α1A-AR [1]; [10]) [µM]	IP production, compound alone, compared to control, α1A-AR (α1A-AR [3]; 100 µM compound alone, agonist screen, n = 3)	Maximal IP production, % of the (-) norepinephrine control (α1A-AR [3]; COS-1 cells expressing α1A-AR)	EC50 (α1A-AR [3]; COS-1 cells expressing α1A-AR, 30 min, n = 3, read-out: pEC50, increase in intracellular IP at α1A-AR (converted)) [µM]	IP production, compound alone, compared to control, α1D-AR (α1D-AR [4])	Ki (all α1-AR subtypes) [µM]
Cc1ccc(C)c(N2CCN(CC(O)COC(C)(C)C)CC2)c1 (centres unmarked) [Compound 1]	< 2	1.42	< 2	1.17	< 2	0.83	0.794	25.1	–	–	–	–	–	–	–	–	–
COc1cccc(C=CCN2CCN(c3cccc(C(F)(F)F)c3)CC2)c1 [Compound 2]	–	4.59	–	0.49	–	18.8	10.5	17	10	38	–	–	–	–	–	–	–
CCN(Cc1ccccc1)CC(O)c1cccc(Cl)c1 (centres unmarked) [Compound 3]	–	24.4	–	15.1	–	8.35	7.76	–	–	–	9.55	12.6	–	–	–	–	–
Cc1cc(CN2CCCN(C(=S)Nc3ccccc3C(F)(F)F)CC2)no1 [Compound 4]	–	> 100	–	> 100	–	> 100	> 100	–	–	–	> 100	> 100	–	–	–	–	–
Cc1cccc(CN2CCCN(C(=S)NCCN3CCOCC3)CC2)n1 [Compound 5]	–	> 100	–	> 100	–	> 100	> 100	–	–	–	> 100	> 100	–	–	–	–	–
CCCCC(O)CN1CCC(Cc2ccccc2)CC1 (centres unmarked) [Compound 6]	–	17	–	5.22	–	5.9	5.5	–	–	–	13.5	4.9	–	–	–	–	–
CN(C)CC(C(=O)c1ccc(Br)cc1)C(Br)c1ccccc1 (centres unmarked) [Compound 7]	–	38.5	–	20.3	–	–	9.77	–	–	–	17	14.8	–	–	–	–	–
CCCCCCCCN(CCCCCCCC)CC(O)c1ccccc1Cl (centres unmarked) [Compound 8]	–	> 100	–	45.9	–	48.7	–	–	–	–	> 100	41.7	distinct trend of increased IP production	approximately 30%	5.5	distinct trend of increased IP production	–
CN(C)c1ccc(CN2CCCN(Cc3ccc(N(C)C)cc3)C2c2cc(Cl)ccc2O)cc1 [Compound 9]	–	> 100	–	24.5	–	36.1	24.5	–	–	–	> 100	23.4	–	–	–	–	–
Cc1ccc(C(=O)/C(S)=C(\Nc2cccc(Cl)c2)[n+]2ccccc2)cc1 [Compound 10]	–	> 100	–	> 100	–	> 100	> 100	–	–	–	> 100	> 100	–	–	–	–	–
COc1cc2c(cc1OC)C1CC(C)=C(c3ccccc3)CN1CC2 (centres unmarked) [Compound 11]	–	11.8	–	2	–	1.6	1.51	13.2	7	–	11	1.78	–	–	–	–	–
CCCCN(Cc1ccc(N(CC)CC)cc1)CC(O)c1ccc(Cl)cc1 (centres unmarked) [Compound 12]	–	> 100	–	45.5	–	62.4	32.4	–	–	–	> 100	30.9	–	–	–	–	–
COc1cc2nc(N3CCN(C(=O)c4ccco4)CC3)nc(N)c2cc1OC [prazosin]	–	–	–	–	–	–	–	–	–	–	–	–	–	–	–	–	~0.0001

Reference: paper PMC3091868, “A Novel Structural Framework for α1A/D-Adrenoceptor Selective Antagonists Identified Using Subtype Selective Pharmacophores” (PLoS ONE, 2011)
